Assay results: patent US6903129B2, “D-proline prodrugs” (Hoffman-La Roche Inc., priority 2001, dated 2005)

Key:
[1] = Rat liver microsome incubation; assay type: in vitro ADME; settings: for Rat microsomes Clearance: intrinsic clearance, rat liver microsomes 1.0 mg prot/mL, prodrug 10 μM, 37° C.; for Rat microsomes MAB %: maximal achievable bioavailability (1−E), extrapolated from rat microsomal clearance
Description: (§1) Test Description for Microsome Incubation
(§2) Rat and human liver microsome incubations were conducted on-line in a CTC PAL autosampler in order to avoid any degradation of the prodrugs during the work-up. Incubation mixtures consisted of liver microsomes (rat 1.0 mg prot/mL or human 2.0 mg prot/mL), prodrug 10 μM, MgCl2 (3.3 mM), and an NADPH regenerating system consisting of glucose-6-phosphate dehydrogenase, NADPH and glucose-6-phosphate equivalent to 1 mM NADPH) in a total volume of 1.0 mL of potassium phosphate buffer 100 mM pH 7.4.
(§3) Reactions were initiated by addition of the NADPH regenerating system at 37° C. At time 1, 5, 9, 13, 17, 21, 25, and 29 min a 5 μL aliquot was directly analysed on a HPLC-MS/MS system comprising of a HP 1100 quaternary pump with degasser and a PE-Sciex API-2000 MS/MS spectrometer. The analytical column was a Waters Symmetry Shield RP8 (2.1*50 mm with a […] particle size). A polarity non linear gradient from phase A (MeOH/Ac. Form.1% 20/80) to phase B (MeOH) was applied for a total run time of 2 minutes at a flow rate of 0.25 mL/min. The PE-Sciex API-2000 MS/MS spectrometer was used for detection of both the prodrugs and the parent compound (R)-1-[6-[(R)-2-carboxy-pyrrolidin-1-yl]-6-oxo-hexanoyl]-pyrrolidine-2-carboxylic acid. In vivo metabolic clearance was predicted according to published procedures (Houston, J. B., Biochem. Pharmacol., 47:1469-1479, 1994). In brief, the intrinsic clearance (Clearance, Table 1) was calculated from the measured in vitro half-life taking into account incubation volume and microsomal protein used for the in vitro incubation. The intrinsic clearance was expressed in terms of ul/min/mg microsomal protein. For in vivo extrapolations, the hepatic extraction ratio (E) was calculated. Reported below is the %MAB value (maximal achievable bioavailability), which is equal to 1−E.

[2] = Human liver microsome incubation; assay type: in vitro ADME; settings: for Human microsomes Clearance: intrinsic clearance, human liver microsomes 2.0 mg prot/mL, prodrug 10 μM, 37° C.; for Human microsomes MAB %: maximal achievable bioavailability (1−E), extrapolated from human microsomal clearance
Description: as §1, §2, §3

[3] = Stability of the prodrugs in plasma samples; assay type: in vitro ADME, rat; settings: half-life (50% conversion of the prodrug), 10 μM, 37° C.
Description: Stability of the Prodrugs in Blood and Plasma Samples
Plasma and blood samples from different species were merged with equimolar amounts (10 μM) of prodrug and parent drug in DMSO and incubated for different time intervals (up to 60 min.) at 37° C. The reaction was stopped by protein precipitation with acetonitrile followed by centrifugation (20 min., 1800 g at 10° C.). The supernatant was immediately subjected to analysis.
The concentration of formed parent compound was determined by LC-MS. The chromatographic system was comprised of a trapping column (X-Terra™ MS C8 3.5 μm, 10×2.1 mm i.d., Waters) and an analytical column (Symmetry C8 3.5 μm, 50×2.1 mm i.d., Waters) connected to a SCIEX API 2000 triplequadrupole mass spectrometer equipped with a turbo ion spray interface. The mobile phases were 1% aqueous formic acid and acetonitrile. The parent compound together with its deuterium labelled internal standard was enriched on the trapping column and eluted with a fast gradient. The retention time of (R)-1-[6-[(R)-2-carboxy-pyrrolidin-1-yl]-6-oxo-hexanoyl]-pyrrolidine-2-carboxylic acid was ˜2.1 min. The effluent (300 μl min^−1) was passed to the turbo ion spray interface without splitting and was nebulized using nitrogen. Multiple reaction monitoring (MRM) in positive mode Was used for mass spectrometric detection. The transitions for the parent were 341.1 [M+H]^+ to 226.1 [Fragment]^+ and for the internal standard 349.1 [M+H]^+ to 234.1 [Fragment]^+. The results were expressed as half-lifes (50% conversion of the prodrug), using the data of the prodrug at time-point 0 min. as […].

| Rat microsomes Clearance [1] | Rat microsomes MAB % [1] [%] | Human microsomes Clearance [2] | Human microsomes MAB % [2] [%] | Rat plasma tl/2 hours [3] | Compound |
| --- | --- | --- | --- | --- | --- |
| 7 ul/min/mg microsomal protein | 84 | 1 ul/min/mg microsomal protein | 96 | 0.8 h | CN(C)C(=O)COC(=O)[C@H]1CCCN1C(=O)CCCCC(=O)N1CCC[C@@H]1C(=O)OCC(=O)N(C)C [Example 6, (R)-1-{6-[(R)-2-(Dimethylcarbamoyl-methoxycarbonyl)-pyrrolidin-1-yl]-6-oxo-hexanoyl}-pyrrolidine-2-carboxylic acid dimethylcarbamoyl-methyl ester] |
| 5 ul/min/mg microsomal protein | 88 | 1 ul/min/mg microsomal protein | 93 | 0.4 h | NC(=O)COC(=O)[C@H]1CCCN1C(=O)CCCCC(=O)N1CCC[C@@H]1C(=O)OCC(N)=O [Example 1, (R)-1-[6-[(R)-2-Carbamoylmethoxycarbonyl-pyrrolidin-1-yl]-6-oxo-hexanoyl]-pyrrolidine-2-carboxylic acid carbamoylmethyl ester] |
| 9 ul/min/mg microsomal protein | 73 | 2 ul/min/mg microsomal protein | 90 | 0.2 h | CCN(CC)C(=O)COC(=O)[C@H]1CCCN1C(=O)CCCCC(=O)N1CCC[C@@H]1C(=O)OCC(=O)N(CC)CC [Example 7, (R)-1-{6-[(R)-2-(Diethylcarbamoyl-methoxycarbonyl)-pyrrolidin-1-yl]-6-oxo-hexanoyl}-pyrrolidine-2-carboxylic acid diethylcarbamoyl-methyl ester] |
| 46 ul/min/mg microsomal protein | 44 | 5 ul/min/mg microsomal protein | 77 | 0.4 h | CCOC(=O)[C@H]1CCCN1C(=O)CCCCC(=O)N1CCC[C@@H]1C(=O)OCC [Example 11, (R)-1-{6-[(R)-2-Ethoxycarbonyl-pyrrolidin-1-yl]-6-oxo-hexanoyl}-pyrrolidine-2-carboxylic acid ethyl ester] |
| 82 ul/min/mg microsomal protein | 30 | 16 ul/min/mg microsomal protein | 50 | low | CC(C)NC(=O)COC(=O)[C@H]1CCCN1C(=O)CCCCC(=O)N1CCC[C@@H]1C(=O)OCC(=O)NC(C)C [Example 3, (R)-1-{6-[(R)-2-(Isopropylcarbamoyl-methoxycarbonyl)-pyrrolidin-1-yl]-6-oxo-hexanoyl}-pyrrolidine-2-carboxylic acid isopropylcarbamoyl-methyl ester] |

Second part, the molecule before the results:

| Compound | Rat microsomes Clearance [1] | Rat microsomes MAB % [1] [%] | Human microsomes Clearance [2] | Human microsomes MAB % [2] [%] | Rat plasma tl/2 hours [3] |
| --- | --- | --- | --- | --- | --- |
| CCCOC(=O)[C@H]1CCCN1C(=O)CCCCC(=O)N1CCC[C@@H]1C(=O)OCCC [Example 12, (R)-1-{6-Oxo-6-[(R)-2-propoxycarbonyl-pyrrolidin-1-yl]-hexanoyl}-pyrrolidine-2-carboxylic acid propyl ester] | 253 ul/min/mg microsomal protein | 12 | 73 ul/min/mg microsomal protein | 18 |  |
| O=C(COC(=O)[C@H]1CCCN1C(=O)CCCCC(=O)N1CCC[C@@H]1C(=O)OCC(=O)NC1CC1)NC1CC1 [Example 5, (R)-1-{6-[(R)-2-(Cyclopropylcarbamoyl-methoxycarbonyl)-pyrrolidin-1-yl]-6-oxo-hexanoyl}-pyrrolidine-2-carboxylic acid cyclopropylcarbamoyl-methyl ester] | 36 ul/min/mg microsomal protein | 50 | 8 ul/min/mg microsomal protein | 67 | low |
| C=CCNC(=O)COC(=O)[C@H]1CCCN1C(=O)CCCCC(=O)N1CCC[C@@H]1C(=O)OCC(=O)NCC=C [Example 2, (R)-1-[6-[(R)-2-Allylcarbamoylmethoxycarbonyl-pyrrolidin-1-yl]-6-oxo-hexanoyl]-pyrrolidine-2-carboxylic acid allylcarbamoylmethyl ester] | 18 ul/min/mg microsomal protein | 66 | 64 ul/min/mg microsomal protein | 20 | low |
| CC(C)(C)NC(=O)COC(=O)[C@H]1CCCN1C(=O)CCCCC(=O)N1CCC[C@@H]1C(=O)OCC(=O)NC(C)(C)C [Example 4, (R)-1-{6-[(R)-2-(tert-Butylcarbamoyl-methoxycarbonyl)-pyrrolidin-1-yl]-6-oxo-hexanoyl}-pyrrolidine-2-carboxylic acid tert-butylcarbamoyl-methyl ester] | 625 ul/min/mg microsomal protein | 5 | 57 ul/min/mg microsomal protein | 22 | low |
| COC(=O)[C@H]1CCCN1C(=O)CCCCC(=O)N1CCC[C@@H]1C(=O)OC [Example 10, (R)-1-{6-[(R)-2-Methoxycarbonyl-pyrrolidin-1-yl]-6-oxo-hexanoyl}-pyrrolidine-2-carboxylic acid methyl ester] | 9 ul/min/mg microsomal protein | 79 | 2 ul/min/mg microsomal protein | 90 | 1.3 h |
